Laboratory results from patent US10738093B2, “Discovery of cationic nonribosomal peptides as Gram-negative antibiotics through global genome mining” (The Hong Kong University of Science and Technology, priority 2018, dated 2020).
Values after ≈ are worked out from the molar mass of the structure shown. Read-outs that look alike come from different tables or passages of the source. Positions of bridges follow the written chain, without caps; N, C: chain ends. Non-standard residues stand in square brackets, D forms with d. Residues, ends and D or L forms follow the SMILES beside them. *: point of attachment. Octanoyl(7-Me) = CC(C)CCCCCC(=O)*; dOrn = NCCC[C@@H](N)C(=O)O; Orn = NCCC[C@H](N)C(=O)O

Legend:
[1] = test system: Bacillus subtilis 168; format: cell-based; details: Table 2; B. subtilis 168
Protocol: (§1) Minimum inhibitory concentration (MIC) was determined by broth microdilution according to CLSI guidelines. The test medium for most species was Mueller-Hinton broth (MHB). Bacteria were grown overnight to early stationary phase and adjusted in MHB to 5.0×10^5 colony-forming units per mL (c.f.u./mL) in the wells of 96-well microtiter plates, mixed with varying concentrations of test compounds and incubated at 37° C. for 24 h. […] MHBs containing 10% fetal bovine serum (Gibco), 21 mM MgCl, or 1.0 mg/ml LPS (lipopolysaccharides from Escherichia coli O55:B5, Sigma-Aldrich) were used to test their inhibitory effects.

[2] = test system: Pseudomonas aeruginosa PAO1; format: cell-based
Protocol: as §1

[3] = test system: Methicillin-resistant Staphylococcus aureus ATCC 43300; format: cell-based; details: Table 2; Methicillin-resistant Staphylococcus aureus ATCC 43300
Protocol: as §1

[4] = test system: Escherichia coli ATCC 25922; assay: microbe, parasite or virus in culture; format: cell-based
Protocol: as §1

[5] = test system: Escherichia coli ATCC 25922; assay: Resistance acquisition during serial passaging; format: cell-based; details: serial passaging at subinhibitory concentrations over 30 days
Protocol: Escherichia coli ATCC 25922 was inoculated into MHB overnight at 37° C. with continuous shaking. Cells were diluted 10,000 times in MHB to about 1×10^6 c.f.u./mL. […] Plates with bacteria were incubated at 37° C. without shaking. […] This process was repeated for 30 d, and the final MIC was confirmed by the same antibacterial assay described above. The experiment was performed in quadruplicate, and on each day, the sample that developed the highest resistance was measured to plot the curve.

[6] = test system: E. coli Top10; format: cell-based, Escherichia coli; details: E. coli Top10
Protocol: as §1

[7] = test system: Colistin-resistant E. coli (E. coli ATCC 25922 carrying mcr-1); format: cell-based, Escherichia coli
Protocol: as §1

[8] = test system: Enterobacter cloacae NRRL-B-413; format: cell-based; details: Table 2; Enterobacter cloacae NRRL-B-413
Protocol: as §1

[9] = test system: Acinetobacter baumannii; format: cell-based; details: Table 2; Acinetobacter baumannii
Protocol: as §1

[10] = test system: Candida albicans; format: cell-based; details: Table 2; Candida albicans
Protocol: as §1

[11] = test system: Saccharomyces cerevisiae VL-48; assay: MIC, Saccharomyces cerevisiae; format: cell-based; details: Table 2; Saccharomyces cerevisiae VL-48
Protocol: as §1

[12] = Table 2, Pseudomonas aeruginosa PAO1
[13] = Table 2, Escherichia coli ATCC 25922

Compound	MIC Bs [1]	MIC MRSA [3]	MIC Pa [2, 12]	MIC Ec [4, 13]	further results
CC[C@H](C)[C@H](NC(=O)[C@@H](NC(=O)[C@H](Cc1c[nH]c2ccccc12)NC(=O)[C@@H](CCCN)NC(=O)CNC(=O)[C@@H](CCCN)NC(=O)[C@@H](CCCN)NC(=O)[C@@H](Cc1c[nH]c2ccccc12)NC(=O)[C@@H](Cc1ccc(O)cc1)NC(=O)[C@@H](CO)NC(=O)CCCCCC(C)C)[C@@H](C)O)C(=O)N[C@@H](CC(N)=O)C(=O)NCC(=O)NCC(=O)O [Compound 11] ({Octanoyl(7-Me)}-[dS][dY][dW][dOrn][dOrn]G[dOrn]WTINGG-OH)	ND (ND >64 μg/ml)	ND (ND >64 μg/ml)	–	–	MIC Pa ([2]; PAO1): 8 µg/mL (≈ 4.93 µM); MIC Ec ([4]; ATCC 25922): 16 µg/mL (≈ 9.86 µM)
O=C(O)c1cn(C2CC2)c2cc(N3CCNCC3)c(F)cc2c1=O [ciprofloxacin, reference compound]	–	–	–	–	development of resistance [5]: rapidly developed resistance
CC(C)CCCCCC(=O)N[C@H](CO)C(=O)N[C@H](Cc1ccc(O)cc1)C(=O)N[C@H](Cc1c[nH]c2ccccc12)C(=O)N[C@H](CCCN)C(=O)O [Compound 10] ({Octanoyl(7-Me)}-[dS][dY][dW][dOrn]-OH)	ND (ND >64 μg/ml)	ND (ND >64 μg/ml)	ND (ND >64 μg/ml)	ND (ND >64 μg/ml)	–
NCCC[C@H](N)C(=O)NCC(=O)N[C@H](CCCN)C(=O)O [Compound 7] (H-[Orn]-Gly-[dOrn]-OH)	ND (ND >64 μg/ml)	ND (ND >64 μg/ml)	ND (ND >64 μg/ml)	ND (ND >64 μg/ml)	–
colistin [reference compound]	–	–	–	–	MIC ([2]; Pseudomonas aeruginosa PAO1): 1 µg/mL; MIC ([4]; E. coli ATCC 25922 + 10% serum): 2 to 4 µg/mL; MIC ([4]; E. coli ATCC 25922 + LPS (1.0 mg L^−1)): >64 µg/mL; MIC ([4]; E. coli ATCC 25922 + Mg^2+ (21 mM)): >64 µg/mL; MIC ([4]; Escherichia coli ATCC 25922): 2 µg/mL; MIC [6]: 2 µg/mL; MIC [7]: 16 µg/mL
CC(C)CCCCCC(=O)N[C@H](CO)C(=O)N[C@H](Cc1ccc(O)cc1)C(=O)N[C@H](Cc1c[nH]c2ccccc12)C(=O)N[C@H](CCCN)C(=O)N[C@@H](CCCN)C(=O)NCC(=O)N[C@H](CCCN)C(=O)O [Compound 9] ({Octanoyl(7-Me)}-[dS][dY][dW][dOrn][Orn]G[dOrn]-OH)	ND (ND >64 μg/ml)	ND (ND >64 μg/ml)	ND (ND >64 μg/ml)	ND (ND >64 μg/ml)	–
C[C@H]1COc2c(N3CCN(C)CC3)c(F)cc3c(=O)c(C(=O)O)cn1c23 [Levofloxacin, reference compound]	–	–	–	–	MIC ([4]; Escherichia coli, ATCC25922, positive control of the mouse thigh study, read-out: MIC): 0.032 µg/mL (≈ 0.0886 µM)
CC[C@H](C)[C@@H]1NC(=O)[C@@H](NC(=O)[C@@H](N)Cc2c[nH]c3ccccc23)[C@@H](C)OC(=O)CNC(=O)CNC(=O)[C@H](CC(N)=O)NC1=O [Compound 8] (H-WTINGG; ester 2-C)	ND (ND >64 μg/ml)	ND (ND >64 μg/ml)	ND (ND >64 μg/ml)	ND (ND >64 μg/ml)	–
CC[C@H](C)[C@@H]1NC(=O)[C@@H](NC(=O)[C@@H](N)Cc2c[nH]c3ccccc23)[C@@H](C)OC(=O)[C@@H](CO)NC(=O)CNC1=O [Compound 4] (H-WTIG[dS]; ester 2-C)	ND (ND >64 μg/ml)	ND (ND >64 μg/ml)	ND (ND >64 μg/ml)	ND (ND >64 μg/ml)	MIC En [8]: ND (ND >64 μg/ml); MIC Ab [9]: ND (ND >64 μg/ml); MIC Ca [10]: ND (ND >64 μg/ml); MIC Sc [11]: ND (ND >64 μg/ml)
